Patent US20250011881A1, “MYC-HSF1 DUAL AMPLIFICATION AS A BIOMARKER FOR CANCER TREATMENT” (The Trustees of Indiana University, priority 2023, published 2025)
Several values for one entry are separate records, joined by “and”; a condition that tells them apart may be missing. Equal entries are not always repeated.

These molecules were tested on ovarian cancer cells with (OVCAR8, OVCAR4) or without (OVSAHO, CAOV3) MYC-HSF1 amplification (assay: Epigenetic inhibitor drug screen, cell viability (Cell Titer Blue)). Conditions: not given.
Type: cell-based

SMILES | Non Amp - AMP (POC) 10 uM
O=C(CCCCCCC(=O)NO)NO [SBHA] | 0.3146 POC
O=C(NCC(=O)N1CCCC1)Nc1ccc2cnccc2c1 [SGC707] | 4.518 POC
CCCC(=O)[O-].[Na+] [Sodium butyrate] | −0.4466 POC

Same assay, conditions: 10 uM, 48 hrs; average relative cell viability (vs 1% DMSO) of non-amplified cells (OVSAHO, CAOV3) minus that of MYC-HSF1 amplified cells (OVCAR8, OVCAR4); positive = greater response in amplified cells

SMILES | Non Amp - AMP (POC) 10 uM
CN1C/C=C/CCOc2cccc(c2)-c2ccnc(n2)Nc2cccc(c2)C1 [SB1317] | 5.059 POC
CC(C)N(CCCNC(=O)Nc1ccc(C(C)(C)C)cc1)C[C@H]1O[C@@H](n2cc(Br)c3c(N)ncnc32)[C@H](O)[C@@H]1O [SGC 0946] | 1.268 POC
CN1CCC(CNc2ccc3ncc(-c4cccc(OC(F)(F)F)c4)n3n2)CC1 [SGI-1776 free base] | −17.37 POC
O=c1[nH]c(=S)[nH]c(-c2ccccc2)c1Cc1c(O)ccc2ccccc12 [SIRT 1/2 Inhibitor IV] | 18.95 POC
O=C1NC(=O)/C(=C/c2cccc(C(F)(F)F)c2)S1 [SMI-4a] | −1.184 POC
Cl.O=C(Nc1ccccc1-c1cn2c(CN3CCNCC3)csc2n1)c1cnc2ccccc2n1 [SRT1720 HCl] | 4.809 POC
Cc1nc(-c2cccnc2)sc1C(=O)Nc1ccccc1-c1cn2c(CN3CCOCC3)csc2n1 [SRT2104 (GSK2245840)] | −1.9 POC
O=C(/C=C/c1ccccc1)NC(NC(=S)Nc1ccc(Cl)cc1)C(Cl)(Cl)Cl (centres unmarked) [Sal 003] | −16.28 POC
CC(C(=O)Nc1cccc(/N=C/c2c(O)ccc3ccccc23)c1)c1ccccc1 (centres unmarked) [Salermide] | −13.88 POC
O=C(/C=C/c1ccc(O)c2c1[C@H](C(=O)O[C@H](Cc1ccc(O)c(O)c1)C(=O)O)[C@@H](c1ccc(O)c(O)c1)O2)O[C@H](Cc1ccc(O)c(O)c1)C(=O)O [Salvianolic acid B] | 2.345 POC
Cc1cc(C)nc(SCC(=O)Nc2ncc(Cc3cccc4ccccc34)s2)n1 [SirReal2] | −3.472 POC
Nc1ncnc2c1ncn2[C@@H]1O[C@H](C[C@@H](N)CC[C@H](N)C(=O)O)[C@@H](O)[C@H]1O [Sirefungin] | 12.42 POC
O=C([O-])CCCc1ccccc1.[Na+] [Sodium 4-phenylbutyrate] | 6.103 POC
CN1CCN(c2nc(C3=C(c4c[nH]c5ccccc45)C(=O)NC3=O)c3ccccc3n2)CC1 [Sotrastaurin (AEB071), Sotrastaurin] | 10.63 POC
CN[C@@H]1C[C@H]2O[C@@](C)([C@@H]1OC)n1c3ccccc3c3c4c(c5c6ccccc6n2c5c31)C(=O)NC4 [Staurosporine] | 7.23 POC
N#Cc1c(Oc2ccc(F)c(NC(=O)Cc3cccc(C(F)(F)F)c3)c2)ccc2nc(NC(=O)C3CC3)sc12 [TAK-632] | −12.18 POC
CCS(=O)(=O)c1cccc(-c2cc(C(=O)NC3CCN(C)CC3)c(C)c3[nH]c4ncc(C)cc4c23)c1 [TAK-901] | 3.351 POC

Same assay, conditions: 10 uM, 48 hrs; average relative cell viability (vs 1% DMSO) of non-amplified cells (OVSAHO, CAOV3) minus that of MYC-HSF1 amplified cells (OVCAR8, OVCAR4); positive = greater response in amplified cells; 10 µM

SMILES | Non Amp - AMP (POC) 10 uM
CNCc1ccc(-c2[nH]c3cc(F)cc4c3c2CCNC4=O)cc1 [Rucaparib (free base), Rucaparib] | 8.811 POC
N#CC[C@H](C1CCCC1)n1cc(-c2ncnc3[nH]ccc23)cn1 [Ruxolitinib (INCB018424), Ruxolitinib] | −4.311 POC
N#CC[C@H](C1CCCC1)n1cc(-c2ncnc3[nH]ccc23)cn1 [Ruxolitinib phosphate] | 2.659 POC
CCCCc1nc2cc(/C=C/C(=O)NO)ccc2n1CCN(CC)CC [SB939, Pracinostat] | 42.19 POC
O=C(CCCCCN1C(=O)c2cccc3cccc(c23)C1=O)NO [Scriptaid] | 45.24 POC and 29.99 POC

Same assay, conditions: 10 uM, 48 hrs; average relative cell viability (vs 1% DMSO) of non-amplified cells (OVSAHO, CAOV3) minus that of MYC-HSF1 amplified cells (OVCAR8, OVCAR4); positive = greater response in amplified cells; listed as Pracinostat (SB939), 10 µM

SMILES | Non Amp - AMP (POC) 10 uM
CCCCc1nc2cc(/C=C/C(=O)NO)ccc2n1CCN(CC)CC [SB939, Pracinostat] | 22.93 POC
